Test: PN001/Part I: safety and tolerability
Assay type: in vivo, human
Excerpt: Safety was monitored throughout by adverse events, vital signs, and repeated clinical and laboratory evaluations. […] All adverse events were mild or moderate and severity and transient.

CC(C)c1ccc(CC(=O)N[C@H](C)c2ccc(OCC(F)(F)F)cn2)cc1 [CX-8998]
Abnormal physical sensation (4 mg): 0 n (%)
At least 1 adverse event (4 mg): 1 (16.7) n (%)
Dizziness (4 mg): 0 n (%)
Drowsiness (4 mg): 0 n (%)
Elevated mood (4 mg): 0 n (%)
Euphoric mood (4 mg): 0 n (%)
Eye Disorders (4 mg): 1 (16.7) n (%)
Fatigue (4 mg): 0 n (%)
Feeling abnormal (4 mg): 1 (16.7) n (%)
Floating feeling (4 mg): 0 n (%)
Gastro-intestinal Disorders (4 mg): 0 n (%)
Hangover effect (4 mg): 0 n (%)
Headache (4 mg): 0 n (%)
Indifference (4 mg): 0 n (%)
Injury, Poisoning and Procedural Complications (4 mg): 0 n (%)
Insomnia (4 mg): 0 n (%)
Intoxication (4 mg): 0 n (%)
Irritability (4 mg): 0 n (%)
Lethargy (4 mg): 0 n (%)
Nervous System Disorders (4 mg): 0 n (%)
Paraesthesia (4 mg): 0 n (%)
Paraesthesia oral (4 mg): 0 n (%)
Paraesthesia tongue (4 mg): 0 n (%)
Psychiatric Disorders (4 mg): 0 n (%)
Racing thoughts (4 mg): 0 n (%)
Relaxed (4 mg): 0 n (%)
Sensory disturbance (4 mg): 0 n (%)
Vision blurred (4 mg): 0 n (%)
Visual disturbance (4 mg): 1 (16.7) n (%)
Vivid dreams (4 mg): 0 n (%)
Abnormal physical sensation (8 mg): 0 n (%)
At least 1 adverse event (8 mg): 1 (16.7) n (%)
Dizziness (8 mg): 0 n (%)
Drowsiness (8 mg): 0 n (%)
Elevated mood (8 mg): 0 n (%)
Euphoric mood (8 mg): 0 n (%)
Eye Disorders (8 mg): 1 (16.7) n (%)
Fatigue (8 mg): 0 n (%)
Feeling abnormal (8 mg): 0 n (%)
Floating feeling (8 mg): 0 n (%)
Gastro-intestinal Disorders (8 mg): 1 (16.7) n (%)
Hangover effect (8 mg): 0 n (%)
Headache (8 mg): 0 n (%)
Indifference (8 mg): 0 n (%)
Injury, Poisoning and Procedural Complications (8 mg): 0 n (%)
Insomnia (8 mg): 0 n (%)
Intoxication (8 mg): 0 n (%)
Irritability (8 mg): 0 n (%)
Lethargy (8 mg): 0 n (%)
Nervous System Disorders (8 mg): 1 (16.7) n (%)
Paraesthesia (8 mg): 0 n (%)
Paraesthesia oral (8 mg): 1 (16.7) n (%)
Paraesthesia tongue (8 mg): 0 n (%)
Psychiatric Disorders (8 mg): 0 n (%)
Racing thoughts (8 mg): 0 n (%)
Relaxed (8 mg): 0 n (%)
Sensory disturbance (8 mg): 0 n (%)
Vision blurred (8 mg): 0 n (%)
Visual disturbance (8 mg): 1 (16.7) n (%)
Vivid dreams (8 mg): 0 n (%)
Abnormal physical sensation (8 mg evening): 1 (16.7) n (%)
At least 1 adverse event (8 mg evening): 5 (83.3) n (%)
Dizziness (8 mg evening): 0 n (%)
Drowsiness (8 mg evening): 1 (16.7) n (%)
Elevated mood (8 mg evening): 2 n (%)
Euphoric mood (8 mg evening): 2 n (%)
Eye Disorders (8 mg evening): 1 (16.7) n (%)
Fatigue (8 mg evening): 0 n (%)
Feeling abnormal (8 mg evening): 1 (16.7) n (%)
Floating feeling (8 mg evening): 0 n (%)
Gastro-intestinal Disorders (8 mg evening): 0 n (%)
Hangover effect (8 mg evening): 0 n (%)
Headache (8 mg evening): 1 (16.7) n (%)
Indifference (8 mg evening): 0 n (%)
Injury, Poisoning and Procedural Complications (8 mg evening): 0 n (%)
Insomnia (8 mg evening): 0 n (%)
Intoxication (8 mg evening): 0 n (%)
Irritability (8 mg evening): 0 n (%)
Lethargy (8 mg evening): 0 n (%)
Nervous System Disorders (8 mg evening): 3 (50.0) n (%)
Paraesthesia (8 mg evening): 1 (16.7) n (%)
Paraesthesia oral (8 mg evening): 0 n (%)
Paraesthesia tongue (8 mg evening): 0 n (%)
Psychiatric Disorders (8 mg evening): 4 n (%)
Racing thoughts (8 mg evening): 1 (16.7) n (%)
Relaxed (8 mg evening): 0 n (%)
Sensory disturbance (8 mg evening): 0 n (%)
Vision blurred (8 mg evening): 1 (16.7) n (%)
Visual disturbance (8 mg evening): 0 n (%)
Vivid dreams (8 mg evening): 1 (16.7) n (%)
